Patent US11590116B2 (THERAVANCE BIOPHARMA R&D IP, LLC, priority 2019, dated 2023)

Columns and labels:
[1] = system: TGF-β-stimulated SMAD3 phosphorylation in BEAS-2B cells; assay: Cellular ALK5 potency assay, inhibition of TGF-β stimulated pSMAD3 formation in BEAS-2B cells; type: cell-based; details: Homo sapiens; inhibition of TGF-β stimulated pSMAD3 formation, BEAS-2B cells; read-out: BEAS2B pIC50 (converted)
Method in brief: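 pSMAD3 was quantified by AlphaLISA in BEAS-2B lysates after 10 ng/mL TGF-β (final) for 30 min. Before stimulation, cells received compound for 1 h at 37° C in supplemented HBSS. Values are pIC50, relative to TGF-β-stimulated cells without compound.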

[2] = molecular target: T1, recombinant human ALK5 (TGF-βR1) protein (Homo sapiens, UniProt P36897); assay: Biochemical ALK5 (TGF-βR1) assay to measure pKi (LANCE Ultra ULight kinase assay); details: apparent pKi from pIC50 by Cheng-Prusoff, read-out: ALK5 pKi (converted)
T1 construct: purchased Life Technologies PR9075A
T1 sequence (P36897 34-503): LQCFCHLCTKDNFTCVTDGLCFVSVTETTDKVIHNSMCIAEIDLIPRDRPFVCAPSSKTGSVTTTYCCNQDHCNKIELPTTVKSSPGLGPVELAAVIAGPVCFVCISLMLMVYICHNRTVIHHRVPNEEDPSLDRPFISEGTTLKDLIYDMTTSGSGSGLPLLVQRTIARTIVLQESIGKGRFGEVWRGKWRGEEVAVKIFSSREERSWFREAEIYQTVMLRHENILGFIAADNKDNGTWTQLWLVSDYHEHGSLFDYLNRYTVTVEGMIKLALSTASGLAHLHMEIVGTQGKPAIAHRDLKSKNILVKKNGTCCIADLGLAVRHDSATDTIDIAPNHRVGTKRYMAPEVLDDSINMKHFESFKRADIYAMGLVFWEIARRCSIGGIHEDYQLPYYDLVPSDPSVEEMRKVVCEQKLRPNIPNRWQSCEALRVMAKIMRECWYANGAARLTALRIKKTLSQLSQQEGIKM
Method in brief: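 After a 60 min room-temperature preincubation of ALK5 with compound, phosphorylation proceeds 60 min at 37 °C on ATP addition (125 μM as 5× stock). Detection: Eu-labelled phospho-Thr1342 Topo IIα antibody in EDTA buffer, pH 7.0; emission 665 nm.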

| Ki [2] [nM] | Structure (SMILES) | IC50 [1] [nM] |
| --- | --- | --- |
| < 0.0316 | Cc1cccc(-c2[nH]cnc2-c2ccc3ncc(-c4ccc(C(=O)O)cn4)cc3c2)n1 [Compound 1091, 6-[6-[5-(6-methyl-2-pyridyl)-1H-imidazol-4-yl]-3-quinolyl]pyridine-3-carboxylic acid] | 1580 to 10000 |
| < 0.0316 | Cc1cccc(-c2[nH]cnc2-c2ccc3ncc(-c4ccnc(C(=O)O)c4)cc3c2)n1 [Compound 1092, 4-[6-[5-(6-methyl-2-pyridyl)-1H-imidazol-4-yl]-3-quinolyl]pyridine-2-carboxylic acid] | 1580 to 10000 |
| 0.398 to 3.16 | Cc1cccc(-c2[nH]cnc2-c2ccc3ncc(-c4nccc(C(=O)O[C@@H]5CCNC5)n4)cc3c2)n1 [Compound 1093, [(3R)-pyrrolidin-3-yl] 2-[6-[5-(6-methyl-2-pyridyl)-1H-imidazol-4-yl]-3-quinolyl]pyrimidine-4-carboxylate] | 200 to 1260 |
| < 0.0316 | Cc1cccc(-c2[nH]cnc2-c2ccc3ncc(-c4ccc(C(=O)OC5CCNCC5)cn4)cc3c2)n1 [Compound 1094, 4-piperidyl 6-[6-[5-(6-methyl-2-pyridyl)-1H-imidazol-4-yl]-3-quinolyl]pyridine-3-carboxylate] | 25.1 to 158 |
| 0.398 to 3.16 | Cc1cccc(-c2[nH]ncc2-c2ccc3nccc(C(=O)OC[C@H]4CCCCN4)c3c2)n1 [Compound 1095, [(2R)-2-piperidyl]methyl 6-[5-(6-methyl-2-pyridyl)-1H-pyrazol-4-yl]quinoline-4-carboxylate] | 25.1 to 158 |
| 0.0398 to 0.316 | Cc1cccc(-c2[nH]cnc2-c2ccc3ncc(-c4csc(C(=O)OCCN5CCNCC5)n4)cc3c2)n1 [Compound 1096, 2-piperazin-1-ylethyl 4-[6-[5-(6-methyl-2-pyridyl)-1H-imidazol-4-yl]-3-quinolyl]thiazole-2-carboxylate] | 25.1 to 158 |
| 0.398 to 3.16 | Cc1cccc(-c2[nH]cnc2-c2ccc3nccc(C(=O)O)c3c2)n1 [Compound 1097, 6-[5-(6-methyl-2-pyridyl)-1H-imidazol-4-yl]quinoline-4-carboxylic acid] | 200 to 1260 |
| 0.0398 to 0.316 | Cc1cccc(-c2[nH]cnc2-c2ccc3ncc(-c4nccc(C(=O)OCC5CNC5)n4)cc3c2)n1 [Compound 1098, azetidin-3-ylmethyl 2-[6-[5-(6-methyl-2-pyridyl)-1H-imidazol-4-yl]-3-quinolyl]pyrimidine-4-carboxylate] | 200 to 1260 |
| 0.0398 to 0.316 | Cc1cccc(-c2[nH]cnc2-c2ccc3ncc(-c4ccnc(C(=O)OCCN5CCNCC5)c4)cc3c2)n1 [Compound 1099, 2-piperazin-1-ylethyl 4-[6-[5-(6-methyl-2-pyridyl)-1H-imidazol-4-yl]-3-quinolyl]pyridine-2-carboxylate] | 200 to 1260 |
| 0.0398 to 0.316 | Cc1cccc(-c2[nH]cnc2-c2ccc3ncc(-c4cccc(N5CCNCC5)n4)cc3c2)n1 [Compound 1100, 6-[5-(6-methyl-2-pyridyl)-1H-imidazol-4-yl]-3-(6-piperazin-1-yl-2-pyridyl)quinoline] | < 20 |
| 0.0398 to 0.316 | Cc1cccc(-c2[nH]cnc2-c2ccc3ncc(-c4ncc(C(=O)OC5CCNCC5)cn4)cc3c2)n1 [Compound 1101, 4-piperidyl 2-[6-[5-(6-methyl-2-pyridyl)-1H-imidazol-4-yl]-3-quinolyl]pyrimidine-5-carboxylate] | 25.1 to 158 |
| 0.0398 to 0.316 | Cc1cccc(-c2[nH]cnc2-c2ccc3ncc(-c4nccc(C(=O)OC5CCNCC5)n4)cc3c2)n1 [Compound 1102, 4-piperidyl 2-[6-[5-(6-methyl-2-pyridyl)-1H-imidazol-4-yl]-3-quinolyl]pyrimidine-4-carboxylate] | 200 to 1260 |
| < 0.0316 | Cc1cccc(-c2[nH]cnc2-c2ccc3ncc(-c4ccc(C(=O)OCC5CNC5)cn4)cc3c2)n1 [Compound 1103, azetidin-3-ylmethyl 6-[6-[5-(6-methyl-2-pyridyl)-1H-imidazol-4-yl]-3-quinolyl]pyridine-3-carboxylate] | 25.1 to 158 |
| 0.0398 to 0.316 | Cc1cccc(-c2[nH]cnc2-c2ccc3ncc(-c4csc(C(=O)O[C@@H]5CCNC5)n4)cc3c2)n1 [Compound 1104, [(3R)-pyrrolidin-3-yl] 4-[6-[5-(6-methyl-2-pyridyl)-1H-imidazol-4-yl]-3-quinolyl]thiazole-2-carboxylate] | 25.1 to 158 |
| < 0.0316 | Cc1cccc(-c2[nH]cnc2-c2ccc3ncc(-c4cc(C(=O)O[C@@H]5CCNC5)cs4)cc3c2)n1 [Compound 1105, [(3R)-pyrrolidin-3-yl] 5-[6-[5-(6-methyl-2-pyridyl)-1H-imidazol-4-yl]-3-quinolyl]thiophene-3-carboxylate] | 25.1 to 158 |
| 0.0398 to 0.316 | Cc1cccc(-c2[nH]cnc2-c2ccc3ncc(-c4cncc(CN5C[C@@H](C)N[C@@H](C)C5)c4)cc3c2)n1 [Compound 1106, 3-[5-[[(3S,5R)-3,5-dimethylpiperazin-1-yl]methyl]-3-pyridyl]-6-[5-(6-methyl-2-pyridyl)-1H-imidazol-4-yl]quinoline] | 25.1 to 158 |
| 0.398 to 3.16 | Cc1cccc(-c2[nH]cnc2-c2ccc3nccc(C(=O)O[C@H]4C[C@H](N)C4)c3c2)n1 [Compound 1107, (3-aminocyclobutyl) 6-[5-(6-methyl-2-pyridyl)-1H-imidazol-4-yl]quinoline-4-carboxylate] | 25.1 to 158 |
| 0.398 to 3.16 | Cc1cccc(-c2[nH]cnc2-c2ccc3ncc(-c4nccc(C(=O)O)n4)cc3c2)n1 [Compound 1109, 2-[6-[5-(6-methyl-2-pyridyl)-1H-imidazol-4-yl]-3-quinolyl]pyrimidine-4-carboxylic acid] | 1580 to 10000 |
| 0.0398 to 0.316 | Cc1cccc(-c2[nH]cnc2-c2ccc3ncc(-c4ccc(C(=O)O[C@@H]5CCNC5)nc4)cc3c2)n1 [Compound 1110, [(3R)-pyrrolidin-3-yl] 5-[6-[5-(6-methyl-2-pyridyl)-1H-imidazol-4-yl]-3-quinolyl]pyridine-2-carboxylate] | 200 to 1260 |
| < 0.0316 | Cc1cccc(-c2[nH]cnc2-c2ccc3ncc(-c4ccc(C(=O)O[C@@H]5CCNC5)cn4)cc3c2)n1 [Compound 1111, [(3R)-pyrrolidin-3-yl] 6-[6-[5-(6-methyl-2-pyridyl)-1H-imidazol-4-yl]-3-quinolyl]pyridine-3-carboxylate] | 25.1 to 158 |
| 0.398 to 3.16 | Cc1cccc(-c2[nH]cnc2-c2ccc3ncc(-c4cnc(C(=O)OC5CNC5)nc4)cc3c2)n1 [Compound 1112, azetidin-3-yl 5-[6-[5-(6-methyl-2-pyridyl)-1H-imidazol-4-yl]-3-quinolyl]pyrimidine-2-carboxylate] | 1580 to 10000 |
| 0.0398 to 0.316 | Cc1cccc(-c2[nH]cnc2-c2ccc3ncc(-c4cc(C(=O)OC5CCNCC5)ccn4)cc3c2)n1 [Compound 1115, 4-piperidyl 2-[6-[5-(6-methyl-2-pyridyl)-1H-imidazol-4-yl]-3-quinolyl]pyridine-4-carboxylate] | 25.1 to 158 |
| 0.0398 to 0.316 | Cc1cccc(-c2[nH]cnc2-c2ccc3ncc(C(=O)OCC4CC5(CNC5)C4)cc3c2)n1 [Compound 1116, 2-azaspiro[3.3]heptan-6-ylmethyl 6-[5-(6-methyl-2-pyridyl)-1H-imidazol-4-yl]quinoline-3-carboxylate] | 200 to 1260 |
| 0.0398 to 0.316 | Cc1cccc(-c2[nH]cnc2-c2ccc3ncc(-c4cncc(CN5CCNCC5)c4)cc3c2)n1 [Compound 1117, 6-[5-(6-methyl-2-pyridyl)-1H-imidazol-4-yl]-3-[5-(piperazin-1-ylmethyl)-3-pyridyl]quinoline] | 25.1 to 158 |
| 0.0398 to 0.316 | Cc1cccc(-c2[nH]cnc2-c2ccc3ncc(-c4ncc(C5=CCNC5)s4)cc3c2)n1 [Compound 1118, 5-(2,5-dihydro-1H-pyrrol-3-yl)-2-[6-[5-(6-methyl-2-pyridyl)-1H-imidazol-4-yl]-3-quinolyl]thiazole] | < 20 |
| 0.0398 to 0.316 | Cc1cccc(-c2[nH]cnc2-c2ccc3ncc(-c4ccc(C(=O)O[C@H]5CCNC5)cn4)cc3c2)n1 [Compound 1119, [(3S)-pyrrolidin-3-yl] 6-[6-[5-(6-methyl-2-pyridyl)-1H-imidazol-4-yl]-3-quinolyl]pyridine-3-carboxylate] | 25.1 to 158 |
| 0.398 to 3.16 | Cc1cccc(-c2[nH]cnc2-c2ccc3nccc(C(=O)OCCN4CCNCC4)c3c2)n1 [Compound 1121, 2-piperazin-1-ylethyl 6-[5-(6-methyl-2-pyridyl)-1H-imidazol-4-yl]quinoline-4-carboxylate] | 200 to 1260 |
| 0.0398 to 0.316 | Cc1cccc(-c2[nH]cnc2-c2ccc3ncc(-c4ccc(C(=O)O[C@H]5CCNC5)nc4)cc3c2)n1 [Compound 1122, [(3S)-pyrrolidin-3-yl] 5-[6-[5-(6-methyl-2-pyridyl)-1H-imidazol-4-yl]-3-quinolyl]pyridine-2-carboxylate] | 200 to 1260 |
